Reference: article PMC9406419, “OATD-02 Validates the Benefits of Pharmacological Inhibition of Arginase 1 and 2 in Cancer” (Cancers, 2022)
Where two headings read alike, the source gives them in different places.

How the values were obtained:
[1] = biological target: intracellular arginase in human primary hepatocytes; assay: Liver arginase inhibition assay in human primary hepatocytes (urea in supernatant); type: cell-based; details: 24 h incubation, 5 mM L-arginine
K562 cells = assay: Long-term culture of OATD-02-treated K562 cells (viable cell count, propidium iodide); type: cell-based, human; details: different concentrations, 14 days, medium not replaced
Protocol: CT26.WT (CRL-2638, CT26, mouse colon carcinoma) and K562 (CCL-243, human CML) cell lines were purchased from the ATCC®. Adherent CT26 and non-adherent K562 cells were maintained in the RPMI-1640 medium (Gibco, Life Technologies, Carlsbad, CA, USA) supplemented with 10% foetal bovine serum (FBS, #10270106, ThermoFisher/Gibco™) and 100 U/mL penicillin G and 100 µg/mL streptomycin (Antibiotic-Antimycotic, #15240062, Gibco®) at 37 °C in a humidified 5% CO2 atmosphere. Full-grown monolayers of CT26 cells were trypsinized for 15 min (0.25% Gibco® Trypsin-EDTA), harvested, and passaged several times for expansion. Both cell lines were confirmed at the last used passage to be mycoplasma-free (Mycoalert Detection Kit, Lonza, Basel, Switzerland). The Renca (murine renal adenocarcinoma) cell line was maintained for the in vivo study conducted at Crown Biosciences (Beijing, China). A monolayer culture was grown in DMEM medium supplemented with 10% FBS at 37 °C and 5% CO2. The cells were harvested in exponential growth phase and used for inoculation. […] To assess the antiproliferative effects of OATD-02, the culture medium has not been replaced during this period and the cell density/viability (propidium iodide staining) was determined daily. […]

[2] = test system: intracellular arginase in murine M2-polarized BMDMs; assay: Cell-based arginase inhibition assay in murine M2-polarized bone marrow-derived macrophages (urea in supernatant); design: species or system mouse; details: 24 h incubation, 5 mM L-arginine, read-out: IC50, intracellular activity towards arginase-expressing immune cells
Protocol: The intracellular activity of OATD-02 arginase inhibitor was determined using murine M2-polarized macrophages. Bone marrow cells were collected from femur bones of C57BL/6 male mice. The cells suspended in DMEM medium (ThermoFisher, Waltham, MA, USA) supplemented with 5% FBS and 50 ng/mL M-CSF (PeproTech, Rocky Hill, NJ, USA) were poured through a 40 µm cell strainer and seeded into Petri dishes at 1 × 10^6 cells/mL for 2 days (37 °C, 5% CO2). Next, nonadherent cells were removed and fresh medium was added (DMEM, 5% FCS, 50 ng/mL M-CSF). The next day, the cells were dissociated using the CellStripper Dissociation Reagent (Corning, New York, NY, USA) and resuspended in the fresh DMEM medium containing 5% FCS, 50 ng/mL M-CSF, 20 ng/mL TGF-ß, and 30 ng/mL IL-4 (Biomibo, Warszawa, Poland). The cells were seeded into 96-well plates (64 × 10^3 cells/100 µL/well). […] Following 24 h incubation (37 °C, 5% CO2), the generated urea was detected by mixing 50 µL of the supernatant with 75 µL of the developing reagent (as described in the above section). Normalized absorbance values (515 nm) were fitted to a four-parameter equation using GraphPad Prism and IC50 values were determined. […] Normalized absorbance values (515 nm) were fitted to a four-parameter equation using GraphPad Prism and IC50 values were determined. […]

Compound	IC50 [1]	survival of K562 cells in long-term culture (K562 cells)	IC50 [2]	IC50 ([1]; Hepatocyte)	IC50 ([2]; Mus musculus, BMDM)
CN(C)C[C@@H]1CC[C@@H](CCB(O)O)C[C@]1(N)C(=O)O [OATD-02]	14.2 µM	dying faster in a dose-dependent manner	1.1 µM		
C[C@H](N)C(=O)N1C[C@H](CCCB(O)O)[C@](N)(C(=O)O)C1 [ref. ARGi, numidargistat, reference compound]				50.1 µM	56.2 µM
